Test results: patent US7300934B2, “Benzamide nitriles” (Roche Palo Alto LLC, priority 2003, dated 2007)

Question: With `CC(C)C[C@@H](C#N)NC(=O)[C@@H]1CCCC[C@@H]1NC(=O)c1ccc(-n2cncn2)cc1` [Compound 32, N-[(1S,2R)-2-({[(1S)-1-cyano-3-methylbutyl]amino}carbonyl)cyclohexyl]-4-(1H-1,2,4-triazol-1-yl)benzamide] as the compound, how does the melting point read?
Answer: The melting point was 156 to 158.9 °C.
